Our source for the IC50 values is patent US20170320870A1 (Medical Research Council Technology, priority 2009, published 2017).

The assay has as its target T1, LRRK2 wild type (recombinant human, catalytic domain amino acids 970-2527, GST-tagged) (Homo sapiens, UniProt Q5S007).
T1 construct: The wild type used was recombinant human, catalytic domain (amino acids 970-2527) GST-tagged, expressed in insect cells; GST; purchased Invitrogen Corporation PV4873; host or cells: insect cells
Put plainly: LRRK2 wild type protein kinase assay ([γ-33P] ATP, peptide substrate […]), IC50. The class given is biochemical. The conditions noted are these: LRRK2 (variant not given); read-out: Potency score, LRRK2 IC50. The source says: All LRRK2 protein kinases were of human origin and were sourced from Invitrogen Corporation (Carlsbad, Calif. 92008 USA) unless otherwise indicated. The active mutant used was recombinant human, catalytic domain (amino acids 970-2527) containing a G2019S mutation, GST-tagged, expressed in insect cells (Invitrogen Cat#PV4881). The wild type used was recombinant human, catalytic domain (amino acids 970-2527) GST-tagged, expressed in insect cells (Invitrogen Cat#PV4873). The kinase dead mutant used was recombinant human, catalytic domain (amino acids 970-2527) containing a D1994A mutation, GST-tagged, expressed in insect cells (Invitrogen Cat#PM4041AE). No special measures were taken to activate any of the kinases.
All assays were carried out at room temperature (˜21° C.) and were linear with respect to time and enzyme concentration under the conditions used. Assays were performed for 180 min in a 96 well format. LRRK2 was present at a concentration of approximately 5 nM. The enzyme was diluted and assayed in 50 mM Tris-HCl pH7.5, 0.1 mM EGTA, 1 mM DTT and 10 mM MgCl2. The concentration of magnesium chloride in the assay was 10 mM. The [γ-33P] […] The peptide substrate in the assay was […] at 100 μM.
The assays were initiated with Mg/ATP and stopped by the addition of 25 μl/well 50% orthophosphoric acid. Reactions were harvested onto Whatman P81 Unifilter Plates (Fisher Scientific. Loughborough, LE115RG, UK. Cat# FDU-105-020U) using a Tomtec harvester. (Tomtec Hamden, Conn. 06514. USA) Plates were counted using a Perkin Elmer Top Count NX7. (Perkin Elmer, Shelton Conn. 06484-4794 USA)
IC50 values of inhibitors were determined after carrying out assays at 10 different concentrations of each compound in duplicate.

T1 sequence (Q5S007 970-2527): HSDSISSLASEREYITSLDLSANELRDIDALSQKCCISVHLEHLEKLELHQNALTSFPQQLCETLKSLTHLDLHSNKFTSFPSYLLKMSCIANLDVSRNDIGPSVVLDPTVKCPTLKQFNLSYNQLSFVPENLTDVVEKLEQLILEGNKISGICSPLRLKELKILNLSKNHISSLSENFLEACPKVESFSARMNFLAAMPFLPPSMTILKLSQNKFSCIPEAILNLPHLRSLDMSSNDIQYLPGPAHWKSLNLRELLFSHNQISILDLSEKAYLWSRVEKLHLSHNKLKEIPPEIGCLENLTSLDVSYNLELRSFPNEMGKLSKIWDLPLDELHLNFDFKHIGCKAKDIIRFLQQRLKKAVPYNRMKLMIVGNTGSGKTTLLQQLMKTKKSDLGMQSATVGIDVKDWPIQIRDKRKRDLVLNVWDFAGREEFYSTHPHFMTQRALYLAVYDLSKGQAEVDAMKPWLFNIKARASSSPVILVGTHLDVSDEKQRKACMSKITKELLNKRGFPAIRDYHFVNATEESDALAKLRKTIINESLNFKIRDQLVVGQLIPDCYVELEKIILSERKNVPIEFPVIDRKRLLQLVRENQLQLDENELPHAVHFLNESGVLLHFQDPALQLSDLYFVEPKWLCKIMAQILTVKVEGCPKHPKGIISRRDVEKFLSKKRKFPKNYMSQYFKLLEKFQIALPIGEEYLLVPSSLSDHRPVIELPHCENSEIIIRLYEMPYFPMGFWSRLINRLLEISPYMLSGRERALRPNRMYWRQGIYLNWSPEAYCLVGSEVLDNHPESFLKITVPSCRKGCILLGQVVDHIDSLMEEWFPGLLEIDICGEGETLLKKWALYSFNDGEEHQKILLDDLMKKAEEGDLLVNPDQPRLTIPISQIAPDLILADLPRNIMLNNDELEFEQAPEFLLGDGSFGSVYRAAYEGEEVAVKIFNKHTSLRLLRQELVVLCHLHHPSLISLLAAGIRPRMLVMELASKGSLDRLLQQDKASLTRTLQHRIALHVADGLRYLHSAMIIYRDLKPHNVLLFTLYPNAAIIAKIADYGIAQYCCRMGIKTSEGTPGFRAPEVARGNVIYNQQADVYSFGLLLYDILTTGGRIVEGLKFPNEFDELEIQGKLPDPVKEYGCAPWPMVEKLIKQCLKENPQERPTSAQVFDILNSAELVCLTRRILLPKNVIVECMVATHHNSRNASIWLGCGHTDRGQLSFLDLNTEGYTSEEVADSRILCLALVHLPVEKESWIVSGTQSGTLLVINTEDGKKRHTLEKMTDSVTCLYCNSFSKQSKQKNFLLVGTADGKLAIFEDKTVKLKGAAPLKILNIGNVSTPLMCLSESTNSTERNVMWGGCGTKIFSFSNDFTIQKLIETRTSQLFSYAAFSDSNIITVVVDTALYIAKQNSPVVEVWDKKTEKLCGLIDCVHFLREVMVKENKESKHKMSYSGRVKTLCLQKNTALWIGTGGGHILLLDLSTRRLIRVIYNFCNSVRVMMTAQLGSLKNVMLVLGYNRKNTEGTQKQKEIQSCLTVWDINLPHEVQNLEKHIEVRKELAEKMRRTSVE

`Cc1n[nH]c2ccnc(Nc3ccc(C(N)=O)cc3)c12` [Example 83, 4-(3-Methyl-1H-pyrazolo[4,3-c]pyridin-4-ylamino)-benzamide]: the IC50 lay in the range of 100 to 1000 nM.

For the compound `Cc1n[nH]c2ccnc(Nc3ccc(C(F)(F)F)cc3)c12` [Example 346, (3-Methyl-1H-pyrazolo[4,3-c]pyridin-4-yl)-(4-trifluoromethyl-phenyl)-amine], the IC50 was 100 to 1000 nM.

Take `c1cc(-c2n[nH]c3ccnc(NC4CCCCC4)c23)cc(-n2cccn2)c1` [Example 155]: the 50% inhibitory concentration (IC50) was in the range of 100 to 1000 nM.

`Cc1n[nH]c2ccnc(Nc3ccc(F)cc3)c12` [Example 311, (4-Fluoro-phenyl)-(3-methyl-1H-pyrazolo[4,3-c]pyridin-4-yl)-amine]: the half-inhibitory concentration (IC50) lay in the range of 100 to 1000 nM.

For `Cc1n[nH]c2ccnc(NC(C)C(C)C)c12` (stereo not shown) [Example 27, (1,2-Dimethyl-propyl)-(3-methyl-1H-pyrazolo[4,3-c]pyridin-4-yl)-amine], the IC50 is 100 to 1000 nM.

For the compound `Cc1n[nH]c2ccnc(OCC3CCCCC3)c12` [Example 278, 4-Cyclohexyl-methoxy-3-methyl-1H-pyrazolo[4,3-c] pyridine], the half-inhibitory concentration (IC50) was in the range of 100 to 1000 nM.

For `Cc1cccc(Nc2nccc3[nH]nc(C)c23)c1` [Example 319, (3-Methyl-phenyl)-(3-methyl-1H-pyrazolo[4,3-c]pyridin-4-yl)-amine], the half-inhibitory concentration (IC50) lay in the range of 100 to 1000 nM.

Regarding `Cc1n[nH]c2ccnc(Nc3cccc(-c4nnco4)c3)c12` [Example 353], the IC50 fell in the range of 1000 to 10000 nM.

Take `Cc1n[nH]c2ccnc(OC3CCCC3)c12` [Example 115, 4-Cyclopentyloxy-3-methyl-1H-pyrazolo[4,3-c] pyridine]: the concentration for half-maximal inhibition (IC50) is below 100 nM.

As for `O=C(NCc1ccco1)c1ccc(CCc2n[nH]c3ccnc(NC4CCCCC4)c23)cc1` [Example 250, 4-[2-(4-Cyclohexylamino-1H-pyrazolo[4,3-c]pyridin-3-yl)-ethyl]-N-furan-2-ylmethyl-benzamide], the IC50 was below 100 nM.

In the case of `O=C(Nc1ccc(CCc2n[nH]c3ccnc(NC4CCCCC4)c23)cc1)C1CC1` [Example 274, Cyclopropanecarboxylic acid {4-[2-(4-cyclohexylamino-1H-pyrazolo[4,3-c]pyridin-3-yl)-ethyl]-phenyl}-amide], the half-maximal inhibitory concentration (IC50) was below 100 nM.

For `Cc1n[nH]c2ccnc(NC3CCCCCC3)c12` [Example 33, Cycloheptyl-(3-methyl-1H-pyrazolo[4,3-c]pyridin-4-yl)-amine], the IC50 fell in the range of 100 to 1000 nM.

Take `Cc1n[nH]c2ccnc(NC3CCCN(C)C3)c12` (stereo not shown) [Example 31, (1-Methyl-piperidin-3-yl)-(3-methyl-1H-pyrazolo[4,3-c]pyridin-4-yl)-amine]: the IC50 is 1000 to 10000 nM.

On to `Cc1n[nH]c2ccnc(N[C@@H](C)C(C)C)c12` [Example 40, ((S)-1,2-Dimethyl-propyl)-(3-methyl-1H-pyrazolo[4,3-c]pyridin-4-yl)-amine], for which the concentration for half-maximal inhibition (IC50) was in the range of 100 to 1000 nM.

`O=C(CCc1n[nH]c2ccnc(NC3CCCCC3)c12)N1CCN(Cc2ccc(F)cc2F)CC1` [Example 179, 3-(4-Cyclohexylamino-1H-pyrazolo[4,3-c]pyridin-3-yl)-1-[4-(2,4-difluoro-benzyl)-piperazin-1-yl]-propan-1-one]: the IC50 was 100 to 1000 nM.

`Cc1n[nH]c2ccnc(-c3ccc(N4CCOCC4)cc3)c12` [Example 53, 3-Methyl-4-(4-morpholin-4-yl-phenyl)-1H-pyrazolo[4,3-c] pyridine]: the IC50 was 1000 to 10000 nM.

Consider `Cc1n[nH]c2ccnc(NCC3CCOCC3)c12` [Example 17], for which the IC50 was in the range of 1000 to 10000 nM.

Regarding `CC(C)CN(C)C(=O)CCc1n[nH]c2ccnc(NC3CCCCC3)c12` [Example 182, 3-(4-Cyclohexylamino-1H-pyrazolo[4,3-c]pyridin-3-yl)-N-isobutyl-N-methyl-propionamide], the IC50 was in the range of 100 to 1000 nM.

`O=C(Nc1ccc2nccnc2c1)c1ccc(CCc2n[nH]c3ccnc(NC4CCCCC4)c23)cc1` [Example 254, 4-[2-(4-Cyclohexylamino-1H-pyrazolo[4,3-c]pyridin-3-yl)-ethyl]-N-quinoxalin-6-yl-benzamide]: the IC50 was below 100 nM.

For the compound `Cc1n[nH]c2ccnc(NCCc3ccccc3Cl)c12` [Example 330, [2-(2-Chloro-phenyl)-ethyl]-(3-methyl-1H-pyrazolo[4,3-c]pyridin-4-yl)-amine], the IC50 is below 100 nM.

For the compound `Cc1n[nH]c2ccnc(NC3CCN(C(=O)C4CCC4)CC3)c12` [Example 104, Cyclobutyl-[4-(3-methyl-1H-pyrazolo[4,3-c]pyridin-4-ylamino)-piperidin-1-yl]-methanone], the 50% inhibitory concentration (IC50) lay within 1000 to 10000 nM.

In the case of `Cc1n[nH]c2ccnc(Nc3ccc4cn(C)nc4c3)c12` [Example 64, (2-Methyl-2H-indazol-6-yl)-(3-methyl-1H-pyrazolo[4,3-c]pyridin-4-yl)-amine], the IC50 lay in the range of 1000 to 10000 nM.

Consider `Cc1n[nH]c2ccnc(Nc3ccc(C(=O)N4CCC(F)(F)CC4)cc3)c12` [Example 110, (4,4-Difluoro-piperidin-1-yl)-[4-(3-methyl-1H-pyrazolo[4,3-c]pyridin-4-ylamino)-phenyl]-methanone], for which the IC50 was 100 to 1000 nM.

Take `Cc1n[nH]c2ccnc(Nc3cccc(N(C)C)c3)c12` [Example 92, N,N-Dimethyl-N′-(3-methyl-1H-pyrazolo[4,3-c]pyridin-4-yl)-benzene-1,3-diamine]: the concentration for half-maximal inhibition (IC50) was in the range of 1000 to 10000 nM.

On to `Cc1n[nH]c2ccnc(Nc3cccc(NS(C)(=O)=O)c3)c12` [Example 73, N-[3-(3-Methyl-1H-pyrazolo[4,3-c]pyridin-4-ylamino)-phenyl]-methanesulfonamide], for which the IC50 fell in the range of 100 to 1000 nM.

Turning to `CC1CN(C(=O)c2ccc(CCc3n[nH]c4ccnc(NC5CCCCC5)c34)cc2)C1` [Example 251, {4-[2-(4-Cyclohexylamino-1H-pyrazolo[4,3-c]pyridin-3-yl)-ethyl]-phenyl}-(3-methyl-azetidin-1-yl)-methanone], the 50% inhibitory concentration (IC50) is below 100 nM.

Take `Cc1n[nH]c2ccnc(-c3ccoc3)c12` [Example 58, 4-Furan-3-yl-3-methyl-1H-pyrazolo[4,3-c]pyridine]: the 50% inhibitory concentration (IC50) fell in the range of 1000 to 10000 nM.

With `COCCC(=O)N1CCC(Nc2nccc3[nH]nc(C)c23)CC1` [Example 102, 3-Methoxy-1-[4-(3-methyl-1H-pyrazolo[4,3-c]pyridin-4-ylamino)-piperidin-1-yl]-propan-1-one], the IC50 was 1000 to 10000 nM.

For the compound `Cc1n[nH]c2ccnc(Nc3cccc(C(N)=O)c3)c12` [Example 76, 3-(3-Methyl-1H-pyrazolo[4,3-c]pyridin-4-ylamino)-benzamide], the IC50 was 100 to 1000 nM.

Take `Cc1n[nH]c2ccnc(CCC(C)C)c12` [Example 128, 3-Methyl-4-(3-methyl-butyl)-1H-pyrazolo[4,3-c]pyridine]: the IC50 was in the range of 1000 to 10000 nM.

Consider `Cc1n[nH]c2ccnc(-c3cnccn3)c12` [Example 131, 3-Methyl-4-pyrazin-2-yl-1H-pyrazolo[4,3-cc]pyridine], for which the IC50 fell in the range of 1000 to 10000 nM.

Regarding `Cc1n[nH]c2ccnc(NCCCn3cccn3)c12` [Example 345, (3-Methyl-1H-pyrazolo[4,3-c]pyridin-4-yl)-(3-pyrazol-1-yl-propyl)-amine], the half-maximal inhibitory concentration (IC50) lay in the range of 1000 to 10000 nM.

Turning to `Cc1n[nH]c2ccnc(OC3CCCC3(C)C)c12` (stereo not shown) [Example 289, 4-(2,2-Dimethyl-cyclopentyloxy)-3-methyl-1H-pyrazolo[4,3-c]pyridine], the concentration for half-maximal inhibition (IC50) was 100 to 1000 nM.

As for “1-(3-Benzyl-piperidin-1-yl)- 3-(4-cyclohexylamino-1H- pyrazolo[4,3-c]pyridin-3-yl)- propan-1-one [Example 200]”, the IC50 lay within 100 to 1000 nM.

Take `Cc1n[nH]c2ccnc(N3CCc4ccccc4C3)c12` [Example 12, 2-(3-Methyl-1H-pyrazolo[4,3-c]pyridin-4-yl)-1,2,3,4-tetrahydro-isoquinoline]: the half-maximal inhibitory concentration (IC50) is 1000 to 10000 nM.

Take `Cc1n[nH]c2ccnc(Nc3ccc4nccnc4c3)c12` [Example 352, (3-Methyl-1H-pyrazolo[4,3-c]pyridin-4-yl)-quinoxalin-6-yl-amine]: the IC50 fell in the range of 1000 to 10000 nM.

Turning to `COc1cccc(-c2n[nH]c3ccnc(NC4CCCCC4)c23)c1` [Example 146, Cyclohexyl-[3-(3-methoxy-phenyl)-1H-pyrazolo[4,3-c]pyridin-4-yl]-amine], the 50% inhibitory concentration (IC50) was 100 to 1000 nM.

For `Cc1n[nH]c2ccnc(Nc3cccc(OC(C)C)c3)c12` [Example 341, (3-Isopropoxy-phenyl)-(3-methyl-1H-pyrazolo[4,3-c]pyridin-4-yl)-amine], the IC50 fell in the range of 1000 to 10000 nM.

Regarding `Cc1n[nH]c2ccnc(NCC3CCCO3)c12` (stereo not shown) [Example 304, (3-Methyl-1H-pyrazolo[4,3-c]pyridin-4-yl)-(tetrahydro-furan-2-ylmethyl)-amine], the half-inhibitory concentration (IC50) was 1000 to 10000 nM.

For the compound `CC1CCN(C(=O)CCc2n[nH]c3ccnc(NC4CCCCC4)c23)CC1` [Example 192, 3-(4-Cyclohexylamino-1H-pyrazolo[4,3-c]pyridin-3-yl)-1-(4-methyl-piperidin-1-yl)-propan-1-one], the concentration for half-maximal inhibition (IC50) was in the range of 100 to 1000 nM.

A word on the IC50: it is the concentration that inhibits the measured activity by half.
